{
  "source": "patent US9512073B2",
  "about": "“Amino acid-, peptide-and polypeptide-lipids, isomers, compositions, and uses thereof” (Massachusetts Institute of Technology, priority 2011, dated 2016)",
  "key": {"firefly luciferase": {"tested_on": "firefly luciferase", "assay": "In vitro siRNA transfection assay (luciferase silencing) in HeLa cells with apolipoproteins", "assay_type": "cell-based", "conditions": "for order of silencing effects: with addition of ApoE3 (ApoE), siRNA 50 ng/well", "experimental": "HeLa cells, stably expressing firefly luciferase and Renilla luciferase, were seeded (14,000 cells/well) into each well of an opaque white 96-well plate (Corning-Costar) and allowed to attach overnight in growth medium. Growth medium was composed of 90% phenol red-free DMEM, 10% FBS, 100 units/ml penicillin, […] streptomycin (Invitrogen). Cells were transfected with LNPs formulated with anti-luciferase siRNA by addition of formulated particles to growth medium. Transfections were performed in quadruplicate. Cells were allowed to grow for 1 d at 37° C., 5% CO2 and were then analyzed for luciferase expression. Control experiments were performed with Lipofectamine 2000, as described by the vendor (Invitrogen). Firefly and Renilla luciferase expression was analyzed using Dual-Glo assay kits (Promega). Luminescence was measured using a Victor3 luminometer (Perkin Elmer). Effects of apolipoproteins were evaluated through an in vitro siRNA transfection assay in HeLa cells as previously reported. HeLa cells, stably expressing firefly luciferase and Renilla luciferase were seeded in an opaque white 96-well plate (Corning-Costar) overnight. Cells were transfected by cKK-E12 formulated with 50 ng of firefly-specific siLuc in quadruplicate. Apolipoproteins (Fitzgerald Industries) were incubated with cKK-E12 formulations for 5 mins before adding to cells. After 24 h incubation at 37° C., 5% CO2, cells were analyzed for luciferase expression using Dual-Glo assay kits (Promega). For visualization of cell uptake, cKK-E12 was formulated with an Alexa-Fluor siRNA and incubated with Hela cells for 3 h. Cells were then fixed in 4% paraformaldehyde, permeabilized with 0.1% saponin and stained with Hoescht. All images were acquired using an Opera spinning disc confocal system (Perkin Elmer), and the data was analyzed using Acapella Software (Perkin Elmer)."}, "Factor VII": {"tested_on": "Factor VII", "assay": "In vivo Factor VII gene silencing in mice", "set-up": "species or system C57BL/6 mice", "experimental": "APPL, distearoyl phosphatidylcholine (DSPC), cholesterol and mPEG2000-DMG were solubilized in 90% ethanol at a molar ratio of 50:10:38.5:1.5. The siRNA (against firefly luciferase or fVII) was solubilized in 10 mM citrate, pH 3 buffer at a concentration of 0.4 mg/mL. The ethanolic lipid solution and the aqueous siRNA solution were pumped by means of a syringe pump through a microfluidic mixing chamber to spontaneously form siRNA-containing lipid nanoparticles. Lipids were combined with siRNA at a total lipid to siRNA ratio of 7:1 (wt:wt). These formulations were dialyzed against PBS to remove ethanol and exchange buffer. […]\nC57BL/6 mice (Charles River Labs) were used for siRNA silencing experiments. […] After 48 or 72 h, body-weight gain/loss was measured and mice were anaesthetized by isofluorane inhalation for blood sample collection by retroorbital eye bleed. Serum was isolated with serum separation tubes (Falcon tubes, Becton Dickinson) and Factor VII protein levels were analyzed by chromogenic assay (Biophen FVII, Aniara Corporation). A standard curve was constructed using samples from PBS-injected mice and relative Factor VII expression was determined by comparing treated groups to untreated PBS control. […]"}},
  "note": "“Also recorded” adds a separate entry of the source.",
  "data": [
    {"smiles": "CCCCCCCCCCCCN(CCCCCCCCCCCC)CCCCC1NC(=O)C(CCCCN(CCCCCCCCCCCC)CCCCCCCCCCCC)NC1=O", "note": "(centres unmarked) [cKK-A12]", "values": [
      {"measurement": "order of silencing effects", "setting": "firefly luciferase", "result": "cKK-E12>cKK-A12>cKK-O12"},
      {"measurement": "luciferase silencing, relative potency", "setting": "firefly luciferase; without addition of ApoE3, siRNA 50 ng/well", "result": "more potent than cKK-E12 and cKK-O12"}
    ]},
    {"smiles": "CCCCCCCCCCC(O)CN(CCCCC1NC(=O)C(CCCCN(CC(O)CCCCCCCCCC)CC(O)CCCCCCCCCC)NC1=O)CC(O)CCCCCCCCCC", "note": "(centres unmarked) [cKK-E12]", "values": [
      {"measurement": "order of silencing effects", "setting": "firefly luciferase", "result": "cKK-E12>cKK-A12>cKK-O12"},
      {"measurement": "Factor VII silencing, relative potency", "setting": "Factor VII; lower dose of 0.1 mg/kg, 0.1 mg/kg", "result": "lead compound; also recorded: most potent material"},
      {"measurement": "Factor VII silencing, relative potency", "setting": "Factor VII; siRNA formulation, systemic administration, dose of 1 mg/kg", "result": "more potent than aldehyde and acrylate derivatives"}
    ]}
  ]
}
